In paper PMC11831592, “Repurposing Linezolid in Conjunction with Histone Deacetylase Inhibitor Access in the Realm of Glioblastoma Therapies” (Journal of Medicinal Chemistry, 2025):

Test system: CT-2A-R
Assay: CCK8 cell proliferation assay, CT-2A-R
Type: cell-based
Conditions: Mus musculus, CCK8, 72 h
Procedure: Cell viability and drug cytotoxicity were determined by a CCK-8 kit (Cell Counting Kit-8, CK04-13, MD, USA) (CCK8, C0005, Target Molecule Corp., MA, USA) reagent. Cells were seeded 2 × 10^3 per well in the 96-well plate for 24 h, followed by treating at different concentrations of compounds for 72 h. Before the experiment, CCK8 was 10-fold diluted with the culture medium and then incubated with cells for 30 min. Finally, the OD was 450 nm absorbance and calculated for cell viability.

O=C(/C=C/c1ccc(CNC[C@H]2CN(c3ccc(N4CCOCC4)c(F)c3)C(=O)O2)cc1)NO [compound 1, (S,E)-3-(4-((((3-(3-Fluoro-4-morpholinophenyl)-2-oxooxazolidin-5-yl)methyl)ami-no)methyl)phenyl)-N-hydroxyacrylamide] was tested, and the IC50 was 8.27 ± 1.39 µM.
